Measured values from ChEMBL document CHEMBL4630904, “Data for DCP probe BI 207127” (2021).
The source made the active and inactive calls. No cut-off for these calls is given here.

Key:
[1] = biological target: RNA-directed RNA polymerase (Hepacivirus hominis, UniProt O39930); test: Enzymatic assay with HCV NS5B polymerase D21
[2] = biological target: Sodium-dependent serotonin transporter (Homo sapiens) (UniProt P31645); test: SLC6A4/H Eurofins SafetyScreen44 (BI); conditions: filed as antagonist, Compound concentration 10.0 uM
[3] = biological target: Angiotensin-converting enzyme (Homo sapiens) (UniProt P12821); test: ACE(HU_AMTCH400) Eurofins SafetyScreen44 (BI); conditions: Compound concentration 10.0 uM
[4] = biological target: 5-hydroxytryptamine receptor 1B (Homo sapiens) (UniProt P28222); test: 5HT1B(H) Eurofins SafetyScreen44 (BI); conditions: filed as antagonist, Compound concentration 10.0 uM
[5] = biological target: Cannabinoid receptor 1 (Homo sapiens) (UniProt P21554); test: CB1(HU)_AGON Eurofins SafetyScreen44 (BI); conditions: filed as agonist; Compound concentration 10.0 uM
[6] = biological target: D(1A) dopamine receptor (Homo sapiens) (UniProt P21728); test: D1/H Eurofins SafetyScreen44 (BI); conditions: filed as antagonist, Compound concentration 10.0 uM
[7] = biological target: Vasopressin V1a receptor (Homo sapiens) (UniProt P37288); test: V1A/HUM Eurofins SafetyScreen44 (BI); conditions: Compound concentration 10.0 uM
[8] = biological target: Glucocorticoid receptor (Homo sapiens) (UniProt P04150); test: GCORTICOID/H Eurofins SafetyScreen44 (BI); conditions: Compound concentration 10.0 uM
[9] = biological target: Beta-2 adrenergic receptor (Homo sapiens) (UniProt P07550); test: BETA2/HUM Eurofins SafetyScreen44 (BI); conditions: filed as antagonist, Compound concentration 10.0 uM
[10] = biological target: Gamma-aminobutyric acid receptor subunit alpha-1 (Rattus norvegicus) (UniProt P62813); test: BZD/CENTR/R Eurofins SafetyScreen44 (BI); conditions: Compound concentration 10.0 uM
[11] = biological target: Tyrosine-protein kinase Lck (Homo sapiens) (UniProt P06239); test: LCK_CE Eurofins SafetyScreen44 (BI); conditions: Compound concentration 10.0 uM
[12] = biological target: cGMP-inhibited 3',5'-cyclic phosphodiesterase 3A (Homo sapiens) (UniProt Q14432); test: PDE3A Eurofins SafetyScreen44 (BI); conditions: Compound concentration 10.0 uM
[13] = biological target: Adenosine receptor A2a (Homo sapiens) (UniProt P29274); test: A2A/H Eurofins SafetyScreen44 (BI); conditions: filed as antagonist, Compound concentration 10.0 uM
[14] = biological target: Neuronal acetylcholine receptor; alpha4/beta2 (Homo sapiens) (UniProt P17787+P43681); test: N_NEURO_A4B2 Eurofins SafetyScreen44 (BI); format: protein-complex assay; conditions: filed as agonist, Compound concentration 10.0 uM
[15] = biological target: MAO-A (amine oxidase [flavin-containing] A) (Rattus norvegicus, UniProt P21396); test: MAO-A_ANTAG Eurofins SafetyScreen44 (BI); set-up: mode of action antagonist; scale not given: the % may be the effect or the level left; conditions: compound concentration 10 uM, read-out: % Ctrl
[16] = biological target: Cannabinoid receptor 2 (Homo sapiens) (UniProt P34972); test: CB2/PERIPH/H Eurofins SafetyScreen44 (BI); conditions: Compound concentration 10.0 uM
[17] = biological target: 3',5'-cyclic-AMP phosphodiesterase 4D (Homo sapiens) (UniProt Q08499); test: PDE4D2 Eurofins SafetyScreen44 (BI); conditions: Compound concentration 10.0 uM
[18] = biological target: Cholecystokinin receptor type A (Homo sapiens) (UniProt P32238); test: CCKA/H Eurofins SafetyScreen44 (BI); conditions: Compound concentration 10.0 uM
[19] = biological target: Mu-type opioid receptor (Homo sapiens) (UniProt P35372); test: MU/H Eurofins SafetyScreen44 (BI); conditions: Compound concentration 10.0 uM
[20] = biological target: Muscarinic acetylcholine receptor M3 (Homo sapiens) (UniProt P20309); test: M3/H Eurofins SafetyScreen44 (BI); conditions: Compound concentration 10.0 uM
[21] = biological target: Histamine H2 receptor (Homo sapiens) (UniProt P25021); test: H2/APT/HS Eurofins SafetyScreen44 (BI); conditions: filed as antagonist, Compound concentration 10.0 uM
[22] = biological target: Histamine H1 receptor (Homo sapiens) (UniProt P35367); test: H1/PYRIL/HS Eurofins SafetyScreen44 (BI); conditions: Compound concentration 10.0 uM
[23] = biological target: D(2) dopamine receptor (Homo sapiens) (UniProt P14416); test: D2SH_AGON Eurofins SafetyScreen44 (BI); conditions: filed as agonist, Compound concentration 10.0 uM
[24] = biological target: Potassium voltage-gated channel subfamily V member 1 (Rattus norvegicus) (UniProt P97557); test: K+/VOLT/RA Eurofins SafetyScreen44 (BI); conditions: Compound concentration 10.0 uM
[25] = biological target: 5-hydroxytryptamine receptor 2A (Homo sapiens) (UniProt P28223); test: 5HT2AH_AGON Eurofins SafetyScreen44 (BI); conditions: filed as agonist, Compound concentration 10.0 uM
[26] = biological target: Glutamate receptor ionotropic, NMDA 2A (Rattus norvegicus) (UniProt Q00959); test: NMDA/R Eurofins SafetyScreen44 (BI); conditions: Compound concentration 10.0 uM
[27] = biological target: 5-hydroxytryptamine receptor 3A (Homo sapiens) (UniProt P46098); test: 5HT3/H Eurofins SafetyScreen44 (BI); conditions: Compound concentration 10.0 uM
[28] = biological target: Muscarinic acetylcholine receptor M2 (Homo sapiens) (UniProt P08172); test: M2/H Eurofins SafetyScreen44 (BI); conditions: filed as antagonist, Compound concentration 10.0 uM
[29] = biological target: Sodium-dependent dopamine transporter (Homo sapiens) (UniProt Q01959); test: DATRANS/HUM Eurofins SafetyScreen44 (BI); conditions: Compound concentration 10.0 uM
[30] = biological target: Sodium-dependent noradrenaline transporter (Homo sapiens) (UniProt P23975); test: NEUP/H Eurofins SafetyScreen44 (BI); conditions: Compound concentration 10.0 uM
[31] = biological target: Prostaglandin G/H synthase 1 (Homo sapiens) (UniProt P23219); test: COX-1 Eurofins SafetyScreen44 (BI); conditions: Compound concentration 10.0 uM
[32] = biological target: Androgen receptor (Homo sapiens) (UniProt P10275); test: ANDROGEN/H Eurofins SafetyScreen44 (BI); conditions: Compound concentration 10.0 uM
[33] = biological target: 5-hydroxytryptamine receptor 2B (Homo sapiens) (UniProt P41595); test: 5HT2B/H AG Eurofins SafetyScreen44 (BI); conditions: filed as agonist, Compound concentration 10.0 uM
[34] = biological target: Sodium channel regulatory subunit beta-1 (Rattus norvegicus) (UniProt Q00954); test: NA+/SITE2/R Eurofins SafetyScreen44 (BI); conditions: Compound concentration 10.0 uM
hERG (KCNH2) = hERG (KCNH2) (Homo sapiens, UniProt Q12809); test: HERG_DOFETILIDE Eurofins SafetyScreen44 (BI); set-up: mode of action inhibitor; conditions: probe [3H] Dofetilide, compound concentration 10 uM, read-out: % Ctrl
[35] = biological target: Beta-1 adrenergic receptor (Homo sapiens) (UniProt P08588); test: BETA1/HUM Eurofins SafetyScreen44 (BI); conditions: Compound concentration 10.0 uM
[36] = biological target: 5-hydroxytryptamine receptor 1A (Homo sapiens) (UniProt P08908); test: 5HT1A/H Eurofins SafetyScreen44 (BI); conditions: Compound concentration 10.0 uM
[37] = biological target: Alpha-1A adrenergic receptor (Homo sapiens) (UniProt P35348); test: ALPHA1AH_ANTAG Eurofins SafetyScreen44 (BI); conditions: filed as antagonist, Compound concentration 10.0 uM
[38] = biological target: Delta-type opioid receptor (Homo sapiens) (UniProt P41143); test: DELTA2/H Eurofins SafetyScreen44 (BI); conditions: Compound concentration 10.0 uM
[39] = biological target: Kappa-type opioid receptor (Homo sapiens) (UniProt P41145); test: KAPPA(KOP)_HU Eurofins SafetyScreen44 (BI); conditions: Compound concentration 10.0 uM
[40] = biological target: Prostaglandin G/H synthase 2 (Homo sapiens) (UniProt P35354); test: COX-2 Eurofins SafetyScreen44 (BI); conditions: Compound concentration 10.0 uM
[41] = biological target: Endothelin-1 receptor (Homo sapiens) (UniProt P25101); test: ETA/H Eurofins SafetyScreen44 (BI); conditions: Compound concentration 10.0 uM
[42] = biological target: Muscarinic acetylcholine receptor M1 (Homo sapiens) (UniProt P11229); test: M1/H Eurofins SafetyScreen44 (BI); conditions: Compound concentration 10.0 uM
[43] = biological target: Alpha-2A adrenergic receptor (Homo sapiens) (UniProt P08913); test: ALPHA2A/HU Eurofins SafetyScreen44 (BI); conditions: Compound concentration 10.0 uM
[44] = biological target: Voltage-dependent L-type calcium channel subunit alpha-1C (dihydropyridine site) (Rattus norvegicus, UniProt P22002); test: CA+/DHPSI/R Eurofins SafetyScreen44 (BI); set-up: mode of action inhibitor; conditions: rat brain, probe [3H](+)PN200-110, compound concentration 10 uM, read-out: % Ctrl

Chain of RNA-directed RNA polymerase (O39930 whole entry): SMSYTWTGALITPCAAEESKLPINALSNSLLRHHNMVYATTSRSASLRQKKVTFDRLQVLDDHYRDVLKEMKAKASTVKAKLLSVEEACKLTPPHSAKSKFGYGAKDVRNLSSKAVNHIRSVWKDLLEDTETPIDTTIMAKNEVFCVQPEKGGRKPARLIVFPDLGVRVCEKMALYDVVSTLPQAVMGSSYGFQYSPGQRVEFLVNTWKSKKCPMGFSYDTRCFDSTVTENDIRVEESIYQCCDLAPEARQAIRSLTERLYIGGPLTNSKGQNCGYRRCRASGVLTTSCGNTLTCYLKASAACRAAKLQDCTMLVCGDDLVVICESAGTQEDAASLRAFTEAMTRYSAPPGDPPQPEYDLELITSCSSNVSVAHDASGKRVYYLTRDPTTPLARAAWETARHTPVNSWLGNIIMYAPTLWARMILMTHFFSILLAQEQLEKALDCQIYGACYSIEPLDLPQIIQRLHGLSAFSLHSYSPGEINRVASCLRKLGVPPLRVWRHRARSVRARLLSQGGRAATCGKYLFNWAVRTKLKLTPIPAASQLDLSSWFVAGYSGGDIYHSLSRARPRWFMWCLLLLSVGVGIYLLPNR
Chain of Muscarinic acetylcholine receptor M2 (Homo sapiens) (P08172 whole entry): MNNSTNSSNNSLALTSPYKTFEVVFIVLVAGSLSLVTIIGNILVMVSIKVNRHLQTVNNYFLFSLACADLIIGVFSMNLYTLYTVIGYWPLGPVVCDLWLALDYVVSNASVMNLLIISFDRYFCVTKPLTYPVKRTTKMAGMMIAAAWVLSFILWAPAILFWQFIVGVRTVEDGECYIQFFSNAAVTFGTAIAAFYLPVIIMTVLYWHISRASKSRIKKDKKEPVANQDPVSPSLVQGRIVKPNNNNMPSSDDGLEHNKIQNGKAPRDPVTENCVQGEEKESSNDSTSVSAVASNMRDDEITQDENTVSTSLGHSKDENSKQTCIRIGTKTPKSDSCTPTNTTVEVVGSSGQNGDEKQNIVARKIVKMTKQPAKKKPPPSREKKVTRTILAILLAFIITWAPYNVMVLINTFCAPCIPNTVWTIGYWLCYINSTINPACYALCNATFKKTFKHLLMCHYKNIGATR
Chain of cGMP-inhibited 3',5'-cyclic phosphodiesterase 3A (Homo sapiens) (Q14432 whole entry): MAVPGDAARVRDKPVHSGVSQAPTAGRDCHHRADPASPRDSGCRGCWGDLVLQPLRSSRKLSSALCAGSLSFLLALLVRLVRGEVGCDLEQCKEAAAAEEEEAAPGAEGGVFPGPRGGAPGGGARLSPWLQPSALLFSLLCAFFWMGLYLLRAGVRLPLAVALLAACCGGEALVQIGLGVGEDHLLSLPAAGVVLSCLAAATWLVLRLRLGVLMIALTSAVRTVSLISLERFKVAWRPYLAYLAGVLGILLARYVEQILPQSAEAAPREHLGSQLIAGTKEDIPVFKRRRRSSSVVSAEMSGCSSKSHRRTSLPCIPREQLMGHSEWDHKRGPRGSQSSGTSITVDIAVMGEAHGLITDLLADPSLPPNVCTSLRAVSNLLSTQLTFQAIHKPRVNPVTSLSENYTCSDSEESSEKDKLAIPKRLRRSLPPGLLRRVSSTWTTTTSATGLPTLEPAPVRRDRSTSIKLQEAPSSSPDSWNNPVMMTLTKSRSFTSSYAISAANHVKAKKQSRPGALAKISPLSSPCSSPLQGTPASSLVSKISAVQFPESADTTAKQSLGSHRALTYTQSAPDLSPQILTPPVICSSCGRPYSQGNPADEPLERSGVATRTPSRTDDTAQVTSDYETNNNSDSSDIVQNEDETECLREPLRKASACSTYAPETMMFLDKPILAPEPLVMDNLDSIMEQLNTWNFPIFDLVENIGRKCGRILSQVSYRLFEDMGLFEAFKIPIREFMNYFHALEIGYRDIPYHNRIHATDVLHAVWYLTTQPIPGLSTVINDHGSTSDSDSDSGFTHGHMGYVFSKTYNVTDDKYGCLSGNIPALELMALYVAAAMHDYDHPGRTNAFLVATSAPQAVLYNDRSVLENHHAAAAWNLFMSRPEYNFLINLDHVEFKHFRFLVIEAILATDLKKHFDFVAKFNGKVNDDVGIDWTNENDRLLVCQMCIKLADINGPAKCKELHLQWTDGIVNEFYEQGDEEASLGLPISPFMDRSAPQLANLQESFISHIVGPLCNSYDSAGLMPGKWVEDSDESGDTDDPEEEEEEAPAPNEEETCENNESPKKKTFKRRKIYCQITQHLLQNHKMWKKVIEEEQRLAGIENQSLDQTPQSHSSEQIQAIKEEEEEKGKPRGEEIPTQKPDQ
Chain of Beta-2 adrenergic receptor (Homo sapiens) (P07550 whole entry, looked up): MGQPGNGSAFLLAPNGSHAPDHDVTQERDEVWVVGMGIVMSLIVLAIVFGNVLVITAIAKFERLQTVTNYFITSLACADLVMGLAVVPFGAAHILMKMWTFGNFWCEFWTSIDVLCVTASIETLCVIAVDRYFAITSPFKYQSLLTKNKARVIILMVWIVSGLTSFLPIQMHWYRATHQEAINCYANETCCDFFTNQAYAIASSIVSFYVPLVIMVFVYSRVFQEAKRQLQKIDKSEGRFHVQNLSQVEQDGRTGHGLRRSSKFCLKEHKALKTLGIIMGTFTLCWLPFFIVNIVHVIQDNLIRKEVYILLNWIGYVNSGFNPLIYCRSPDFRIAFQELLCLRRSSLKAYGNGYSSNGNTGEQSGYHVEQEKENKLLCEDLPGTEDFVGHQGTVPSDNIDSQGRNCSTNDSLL
Chain of D(1A) dopamine receptor (Homo sapiens) (P21728 whole entry): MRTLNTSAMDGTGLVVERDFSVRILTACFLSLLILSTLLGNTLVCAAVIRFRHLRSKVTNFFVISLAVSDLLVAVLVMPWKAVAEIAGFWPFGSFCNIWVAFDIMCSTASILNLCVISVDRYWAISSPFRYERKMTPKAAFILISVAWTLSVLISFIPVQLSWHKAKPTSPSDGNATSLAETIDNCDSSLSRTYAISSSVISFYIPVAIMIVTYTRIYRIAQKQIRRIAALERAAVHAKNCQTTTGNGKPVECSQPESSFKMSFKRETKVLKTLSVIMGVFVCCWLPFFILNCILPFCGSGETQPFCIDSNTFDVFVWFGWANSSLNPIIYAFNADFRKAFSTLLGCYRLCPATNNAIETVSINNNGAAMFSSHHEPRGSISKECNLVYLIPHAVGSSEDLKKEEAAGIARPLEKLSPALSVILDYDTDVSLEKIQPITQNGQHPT
Chain of 5-hydroxytryptamine receptor 1A (Homo sapiens) (P08908 whole entry): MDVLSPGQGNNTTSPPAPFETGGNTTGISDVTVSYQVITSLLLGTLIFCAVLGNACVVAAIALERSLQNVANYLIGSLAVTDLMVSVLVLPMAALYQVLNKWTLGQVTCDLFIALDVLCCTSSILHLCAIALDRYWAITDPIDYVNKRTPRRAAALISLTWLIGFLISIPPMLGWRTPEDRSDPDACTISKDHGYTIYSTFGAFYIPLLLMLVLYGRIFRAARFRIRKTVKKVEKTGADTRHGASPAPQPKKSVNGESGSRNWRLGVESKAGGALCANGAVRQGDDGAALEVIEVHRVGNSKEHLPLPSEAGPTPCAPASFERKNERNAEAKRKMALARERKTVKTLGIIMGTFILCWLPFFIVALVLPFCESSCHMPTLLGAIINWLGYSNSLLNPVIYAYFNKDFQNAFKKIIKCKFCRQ
Chain of Sodium-dependent serotonin transporter (Homo sapiens) (P31645 whole entry, looked up): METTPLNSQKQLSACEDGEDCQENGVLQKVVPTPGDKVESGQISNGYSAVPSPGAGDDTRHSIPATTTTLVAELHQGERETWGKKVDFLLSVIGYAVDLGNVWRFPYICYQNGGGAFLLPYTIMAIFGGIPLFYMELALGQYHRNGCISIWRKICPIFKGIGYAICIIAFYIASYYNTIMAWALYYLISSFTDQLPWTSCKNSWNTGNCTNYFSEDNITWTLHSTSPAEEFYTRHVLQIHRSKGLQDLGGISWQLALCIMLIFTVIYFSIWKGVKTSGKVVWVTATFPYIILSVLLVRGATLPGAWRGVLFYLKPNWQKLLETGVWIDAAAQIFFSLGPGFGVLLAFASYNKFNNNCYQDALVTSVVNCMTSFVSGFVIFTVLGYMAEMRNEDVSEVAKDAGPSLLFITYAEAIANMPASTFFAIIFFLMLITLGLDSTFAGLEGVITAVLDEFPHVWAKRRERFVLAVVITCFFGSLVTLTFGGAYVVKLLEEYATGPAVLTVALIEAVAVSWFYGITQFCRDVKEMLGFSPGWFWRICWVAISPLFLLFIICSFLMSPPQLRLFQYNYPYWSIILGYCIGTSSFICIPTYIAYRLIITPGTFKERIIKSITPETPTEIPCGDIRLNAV
Chain of Histamine H1 receptor (Homo sapiens) (P35367 whole entry): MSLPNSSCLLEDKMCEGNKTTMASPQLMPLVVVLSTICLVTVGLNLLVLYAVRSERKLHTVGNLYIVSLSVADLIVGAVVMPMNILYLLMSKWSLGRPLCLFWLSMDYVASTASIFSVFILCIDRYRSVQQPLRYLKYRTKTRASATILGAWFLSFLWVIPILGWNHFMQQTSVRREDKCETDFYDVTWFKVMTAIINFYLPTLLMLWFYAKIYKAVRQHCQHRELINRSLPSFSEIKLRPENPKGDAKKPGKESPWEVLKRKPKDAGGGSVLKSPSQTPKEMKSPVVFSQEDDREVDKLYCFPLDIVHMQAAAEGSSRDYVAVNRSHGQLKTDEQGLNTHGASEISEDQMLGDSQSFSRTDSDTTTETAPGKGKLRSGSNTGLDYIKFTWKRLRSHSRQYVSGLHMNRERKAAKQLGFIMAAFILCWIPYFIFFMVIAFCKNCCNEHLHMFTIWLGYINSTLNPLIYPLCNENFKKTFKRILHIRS
Chain of Histamine H2 receptor (Homo sapiens) (P25021 whole entry): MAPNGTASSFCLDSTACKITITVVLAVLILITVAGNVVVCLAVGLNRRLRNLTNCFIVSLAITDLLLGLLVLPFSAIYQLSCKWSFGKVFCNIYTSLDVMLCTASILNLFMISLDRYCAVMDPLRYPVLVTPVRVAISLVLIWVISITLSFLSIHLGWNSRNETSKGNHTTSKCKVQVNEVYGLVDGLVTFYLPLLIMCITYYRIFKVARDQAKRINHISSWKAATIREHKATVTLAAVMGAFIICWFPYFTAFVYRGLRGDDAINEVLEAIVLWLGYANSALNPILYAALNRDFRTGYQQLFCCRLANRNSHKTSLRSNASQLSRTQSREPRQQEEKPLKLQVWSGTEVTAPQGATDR

## Cn1c(C2(NC(=O)c3ccc(NCC4CCCCC4)nc3)CCC2)nc2ccc(/C=C/C(=O)O)cc21 [BI 7656]
[1]
  IC50: > 5 µM (not active)

## Cn1c(C2(NC(=O)c3ccc4c(C5CCCC5)c(-c5ncc(Br)cn5)n(C)c4c3)CCC2)nc2ccc(/C=C/C(=O)O)cc21 [DELEOBUVIR]
[2]
  residual activity: 117%
[1]
  IC50: 0.019 µM (active)
[3]
  residual activity: 109%
[4]
  residual activity: 97%
[5]
  residual activity: 72%
[6]
  residual activity: 67%
[7]
  residual activity: 97%
[8]
  residual activity: 81%
[9]
  residual activity: 100%
[10]
  residual activity: 148%
[11]
  residual activity: 117%
[12]
  residual activity: 140%
[13]
  residual activity: 133%
[14]
  residual activity: 111%
[15]
  activity at 10 µM: 92% (not active)
[16]
  residual activity: 67%
[17]
  residual activity: 130%
[18]
  residual activity: 12%
[19]
  residual activity: 83%
[20]
  residual activity: 101%
[21]
  residual activity: 108%
[22]
  residual activity: 81%
[23]
  residual activity: 86%
[24]
  residual activity: 107%
[25]
  residual activity: 67%
[26]
  residual activity: 83%
[27]
  residual activity: 105%
[28]
  residual activity: 104%
[29]
  residual activity: 66%
[30]
  residual activity: 76%
[31]
  residual activity: 73%
[32]
  residual activity: 107%
[33]
  residual activity: 140%
[34]
  residual activity: 79%
hERG (KCNH2)
  activity at 10 µM: 68% (not active)
[35]
  residual activity: 96%
[36]
  residual activity: 116%
[37]
  residual activity: 100%
[38]
  residual activity: 47%
[39]
  residual activity: 59%
[40]
  residual activity: 85%
[41]
  residual activity: 107%
[42]
  residual activity: 107%
[43]
  residual activity: 93%
[44]
  activity at 10 µM: 105% (not active)
